From patent US6818049B1, “Environmentally preferred fluids and fluid blends” (ExxonMobil Chemical Patents Inc., priority 1998, dated 2004)
Read-outs that look alike come from different tables or passages of the source. Marks after values point to notes of the source that are not given here.

Legend:
Fluid solvent properties = conditions: for Viscosity: 20° C.
From the text: One of ordinary skill in the art can readily determine the flash point of a fluid or blend (e.g., ASTM D92-78).
The evaporation rate should be suitable for the intended purpose. […] The fluid selected preferably will have a similar evaporation rate to the disadvantaged fluid being replaced, particularly in the case where a fluid blend is used and an acceptable evaporation profile is desired. It is convenient for the fluid selected to have an evaporation rate less than 12 times the evaporation rate of n-butyl acetate. Evaporation rates may also be given relative to n-butyl acetate at 1.0 (ASTM D3539-87). Ranges of evaporation rates important for different applications are 5-3, 3-2, 2-1, 1.0-0.3, 0.3-0.1, and <0.1, relative to n-butyl acetate at 1.0. The present invention is related to fluids and fluid blends that at least partially evaporate into the atmosphere during or after their application.

[1] = reported literature data, cited from earlier work
[2] = Stability to acid catalyst (pTSA) in acrylic solvent system, followed by gas chromatography; assay type: physicochemical; conditions: 0.5 wt % pTSA, 50° C.; for Wt. % of Solvent At One Week Decomposition Period / Wt. % of Solvent At Three Week Decomposition Period: nitrogen atmosphere, start = 100
Procedure: Acrylic solvent systems were prepared to test the stability of dimethyl carbonate to acid catalysts, which are commonly present in coating compositions. The formulations contained 29.9 wt % DMC, 28.7 wt % pentyl acetate, 20.2 wt % n-butyl acetate, 16.1 wt % n-butyl alcohol, 3.6 wt % methyl ethyl ketone, 1.5 wt % isopropyl alcohol. 2 wt % toluene as an internal standard. The latter materials were purchased from Aldrich Chemical Co.
Para toluene sulfonic acid (PTSA) was added to the above formulation (again, pTSA was purchased from Aldrich Chemical Co.), in the amount of 0.5 wt %. The solutions were sealed and placed in an oven at 50° C. under a nitrogen atmosphere. Samples were withdrawn at intervals for testing. The content of dimethyl carbonate was monitored over time by gas chromatographic analysis using an HP 5890 gas chromatograph. In a parallel experiment an equal amount of tert. Butyl acetate was used instead of DMC. The results are shown below in Table 8 (all percentages are by weight).

From the text for in vivo: One way to measure the toxic effects of a chemical is to measure the dose-effect relationship; the dose is usually measured in mg of chemical per kg of body mass. This is typically done experimentally by administering the chemical to mice or rats at several doses in the lethal range and plotting the logarithm of the dose versus the percentage of the population killed by the chemical. The dose lethal to 50% of the test population is called the median lethal dose (LD50) and is typically used as a guide for the toxicity of a chemical. […] EU (European Union) uses a cutoff of >2,000 mg/kg.

SMILES	Boiling Temperature (Fluid solvent properties)	Evaporation Ratio to Butyl Acetate (Fluid solvent properties)	Specific Gravity (Fluid solvent properties)	Surface Tension (Fluid solvent properties)	Viscosity (Fluid solvent properties)	Flash Point [1]	LD50 (in vivo)	Wt. % of Solvent At One Week Decomposition Period [2]	Wt. % of Solvent At Three Week Decomposition Period [2]	also measured
CC(C)=O [Acetone]	56 °C	18	0.792	22.3 dyn/cm	0.33 cps	−20* ° C.	5800 mg/kg	–	–	Hansen Solubility Parameter, H-Bouding (Fluid solvent properties): 3.4; Hansen Solubility Parameter, Nonpolar (Fluid solvent properties): 7.6; Hansen Solubility Parameter, Polar (Fluid solvent properties): 5.1; Hansen Solubility Parameter, Total (Fluid solvent properties): 9.2
COC(C)=O [methyl acetate]	–	–	–	–	–	~−12 °C	–	–	–	Flash Point ([1]; listed as Methyl acetate): about −12 °C
COC(=O)OC [DMC, dimethyl carbonate]	90 °C	3.2	1.065	29 dyn/cm	0.60 cps	+19 to +32* ° C.	13000 mg/kg	97.8 wt. %	95.4 wt. %	Stability to acid catalysts (in words) [2]: more stable to acid catalysts than is t-butyl acetate
CCCCOC(C)=O [Butyl Acetate]	–	–	–	–	–	27 °C	–	–	–	–
COC(=O)C(C)(C)C [MP, methyl pivalate]	99 °C	2.2	0.873	23.8 dyn/cm	0.74 cps	–	–	–	–	Flash Point (Fluid solvent properties): 27.2 °C
CC(=O)OC(C)(C)C [t-butyl acetate]	–	–	–	–	–	–	–	54.4 wt. %	17.2 wt. %	–
